Assay results reported in patent US6242437A, “Cephem derivatives” (Meiji Seika Kaisha, Ltd., priority 1996, dated 2001).
≈ marks a conversion by molar mass, not a printed value. Counter-ions that a name gives are not always drawn.

Legend:
Test in all cases: Minimum inhibitory concentration, two-fold dilution method
Type in all cases: cell-based
C. freundii GN346/16 = conditions: Citrobacter freundii, 10^6 CFU/ml, 35° C., 18 to 20 hr
Method: (§1) The antibacterial activity of the compounds according to the present invention was assayed in terms of the minimum inhibitory concentration, for various bacteria, measured by the conventional two-fold dilution method described in, for example, CHEMOTHERAPY, Vol. 29, No. 1, 76-79 (1981). The measurement was carried out in the following manner: 10^6 CFU/ml of a bacterium to be tested was inoculated on a Medium N for disc susceptibility test (manufactured by Nissui Pharmaceutical Co., Ltd.) and cultivated at 35° C. for 18 to 20 hr.
(§2) The test compounds were the compounds prepared in Examples 4 and 5, Cefozopran (CZOP, control 1), Cefpirome (CPR, control 2), the compound prepared in Example 66 (control 3) described in WO 95/07912.

E. cloacae G-0008 = conditions: Enterobacter cloacae, G0008, 10^6 CFU/ml, 35° C., 18 to 20 hr
Method: as §1, §2

E. coli NIHJ JC-2 = conditions: Escherichia coli, NIHJJC2, 10^6 CFU/ml, 35° C., 18 to 20 hr
Method: as §1, §2

K. pneumoniae PCI602 = conditions: Klebsiella pneumoniae, 10^6 CFU/ml, 35° C., 18 to 20 hr
Method: as §1, §2

M. morganii 1510/S-1 = conditions: Morganella morganii, 1510/S1, 10^6 CFU/ml, 35° C., 18 to 20 hr
Method: as §1, §2

P. aeruginosa E-2 = conditions: Pseudomonas aeruginosa, E2, 10^6 CFU/ml, 35° C., 18 to 20 hr
Method: as §1, §2

P. aeruginosa GN10362 = conditions: Pseudomonas aeruginosa, 10^6 CFU/ml, 35° C., 18 to 20 hr
Method: as §1, §2

P. aeruginosa PA01 = conditions: Pseudomonas aeruginosa; P. aeruginosa PA01, Imipenem- and Aztreonam-resistant; 10^6 CFU/ml, 35° C., 18 to 20 hr
Method: as §1, §2

S. aureus 126 = conditions: Staphylococcus aureus; S. aureus 126, methicilline-resistant (MRSA); 10^6 CFU/ml, 35° C., 18 to 20 hr
Method: as §1, §2

S. aureus 209P JC-1 = conditions: Staphylococcus aureus, 10^6 CFU/ml, 35° C., 18 to 20 hr
Method: as §1, §2

S. epidermidis ATCC14990 = conditions: Staphylococcus epidermidis, 10^6 CFU/ml, 35° C., 18 to 20 hr
Method: as §1, §2

S. marcescens No. 1 = conditions: Serratia marcescens, 10^6 CFU/ml, 35° C., 18 to 20 hr
Method: as §1, §2

S. pneumoniae IP692 = conditions: Streptococcus pneumoniae, 10^6 CFU/ml, 35° C., 18 to 20 hr
Method: as §1, §2

S. pneumoniae PRC9 = conditions: Streptococcus pneumoniae; S. pneumoniae PRC9, penicillin-resistant (PRSP); 10^6 CFU/ml, 35° C., 18 to 20 hr
Method: as §1, §2

S. pneumoniae JPR20 = conditions: Streptococcus pneumoniae; S. pneumoniae JPR20, penicillin-resistant (PRSP); 10^6 CFU/ml, 35° C., 18 to 20 hr
Method: as §1, §2

S. pneumoniae JPR9 = conditions: Streptococcus pneumoniae; S. pneumoniae JPR9, penicillin-resistant (PRSP); 10^6 CFU/ml, 35° C., 18 to 20 hr
Method: as §1, §2

Row | MIC (C. freundii GN346/16) | MIC (E. cloacae G-0008) | MIC (E. coli NIHJ JC-2) | MIC (K. pneumoniae PCI602) | MIC (M. morganii 1510/S-1) | MIC (P. aeruginosa E-2) | MIC (P. aeruginosa GN10362) | MIC (P. aeruginosa PA01) | MIC (S. aureus 126) | MIC (S. aureus 209P JC-1) | MIC (S. epidermidis ATCC14990) | MIC (S. marcescens No. 1) | MIC (S. pneumoniae IP692) | MIC (S. pneumoniae PRC9) | MIC (S. pneumoniae JPR20) | MIC (S. pneumoniae JPR9) | Compound
1 | 0.05 µg/mL (≈ 0.0972 µM) | 0.05 µg/mL (≈ 0.0972 µM) | 0.05 µg/mL (≈ 0.0972 µM) | 0.05 µg/mL (≈ 0.0972 µM) | ≤ 0.025 µg/mL | 3.13 µg/mL (≈ 6.08 µM) | 3.13 µg/mL (≈ 6.08 µM) | 25 µg/mL (≈ 48.6 µM) | 50 µg/mL (≈ 97.2 µM) | 0.2 µg/mL (≈ 0.389 µM) | 0.39 µg/mL (≈ 0.758 µM) | ≤ 0.025 µg/mL | ≤ 0.025 µg/mL | 0.78 µg/mL (≈ 1.52 µM) | – | – | CO/N=C(\C(=O)N[C@@H]1C(=O)N2C(C(=O)[O-])=C(C[n+]3cccc4c3CCC4)CS[C@H]12)c1csc(N)n1 [Control 2, Cefpirome, reference compound]
2 | 0.05 µg/mL | 0.1 µg/mL | 0.05 µg/mL | 0.05 µg/mL | 0.05 µg/mL | 0.78 µg/mL | 0.78 µg/mL | 3.13 µg/mL | 6.25 µg/mL | 0.78 µg/mL | 0.78 µg/mL | 0.1 µg/mL | ≤ 0.025 µg/mL | 0.39 µg/mL | – | – | CO/N=C(\C(=O)N[C@@H]1C(=O)N2C(C(=O)[O-])=C(C[n+]3cc4sccn4c3CNS(N)(=O)=O)CS[C@H]12)c1nsc(N)n1 [Ex. 5, (6R,7R)-7-[(Z)-2-(5-Amino-1,2,4-thiadiazol-3-yl)-2-(methoxyimino)acetamido]-3-[5-sulfamidomethylimidazo[5,1-b]thiazolium-6-yl]methyl-3-cephem-4-carboxylate (inner salt)]
3 | 0.05 µg/mL (≈ 0.097 µM) | 0.1 µg/mL (≈ 0.194 µM) | 0.05 µg/mL (≈ 0.097 µM) | 0.1 µg/mL (≈ 0.194 µM) | 0.1 µg/mL (≈ 0.194 µM) | 0.78 µg/mL (≈ 1.51 µM) | 0.78 µg/mL (≈ 1.51 µM) | 12.5 µg/mL (≈ 24.2 µM) | 50 µg/mL (≈ 97 µM) | 0.39 µg/mL (≈ 0.756 µM) | 0.78 µg/mL (≈ 1.51 µM) | 0.1 µg/mL (≈ 0.194 µM) | 0.05 µg/mL (≈ 0.097 µM) | 1.56 µg/mL (≈ 3.03 µM) | – | – | CO/N=C(\C(=O)N[C@@H]1C(=O)N2C(C(=O)[O-])=C(C[n+]3ccn4ncccc43)CS[C@H]12)c1nsc(N)n1 [Control 1, Cefozopran, reference compound]
4 | ≤ 0.025 µg/mL | 0.05 µg/mL | ≤ 0.025 µg/mL | ≤ 0.025 µg/mL | ≤ 0.025 µg/mL | 0.78 µg/mL | 0.39 µg/mL | 3.13 µg/mL | 6.25 µg/mL | 0.78 µg/mL | 0.78 µg/mL | 0.05 µg/mL | ≤ 0.025 µg/mL | 0.39 µg/mL | 0.05 µg/mL | 0.2 µg/mL | Nc1nc(/C(=N/OCF)C(=O)N[C@@H]2C(=O)N3C(C(=O)[O-])=C(C[n+]4cc5sccn5c4CNS(N)(=O)=O)CS[C@H]23)ns1 [Ex. 4, (6R,7R)-7-[(Z)-2-(5-amino-1,2,4-thiadiazol-3-yl)-2-(fluoromethoxyimino)acetamido]-3-[5-sulfamidomethylimidazo[5,1-b]thiazolium-6-yl]methyl-3-cephem-4-carboxylate (inner salt)]
